From US20140323511A1, “CHEMOTHERAPEUTIC FOR INDUCING AN MSH2 DEPENDENT APOPTOTIC PATHWAY” (Wake Forest University Health Sciences, priority 2013, published 2014)

How the values were obtained:
HEC59 and HEC59+chr.2 = assay: Cell viability compared between the paired MSH2-deficient and MSH2-proficient endometrial cell lines; type: cell-based, human; settings: for cell killing: endometrial cell line deficient (HEC59) and proficient (HEC59+chr.2) for MSH2, data not shown; for change of IC50 when MSH2 is present: HEC59+chr.2 vs HEC59; for change in sensitivity to MSH2: comparison of isomers, MSH2 proficient vs deficient IC50; for difference between MSH2-proficiency and deficiency (MSH2-dependence of cell killing): HEC59 vs HEC59+chr.2
Procedure: (§1) HEC59 cells (msh2 deficient) and the paired cell line HEC59 chr. that restores the MSH2-deficiency via chromosome transfer have been extensively characterized (Umar et al., 1997). Cells were grown in standard growth media (DMEM-F12+10% FBS). Cells were plated in microtiter plates at an appropriate concentration in 100 μl media and incubated overnight. Media was replaced with media containing drug and allowed to incubate for 24 hours at indicated concentrations. Untreated cells received fresh media with vehicle only. One solution reagent (CellTiter 96)(r) Aqueous One Solution) was added to existing media (20 μl/well) and allowed to incubate 3-4 hrs. A plate reader was used to record the absorbance at 490 nm. Assays were performed at least in triplicates. Cell viability at each concentration was analyzed for IC50 values using GraphPad Prism 4™. Graphs represent mean values and standard deviations.
(§2) We next tested these new rescinnamine analogs in a well-defined cellular system with an endometrial cell line deficient (HEC59) and proficient (via chromosome transfer, HEC59+chr.2) for MSH2. […] No significant difference was detected when determining the IC50 values.

[1] = system: HEC59+chr.2 (MSH2 proficient via chromosome transfer); assay: Cell viability assay (CellTiter 96 Aqueous One Solution), MSH2-proficient endometrial cells; type: cell-based; settings: Homo sapiens; HEC59+chr.2, drug 24 hours; graphs not reaching 50% mortality were extrapolated; NA = data did not reach below 50%, no extrapolation possible; read-out: 50IC MSH2 proficient
Procedure: as §1, §2

[2] = system: HEC59 cells (msh2 deficient); assay: Cell viability assay (CellTiter 96 Aqueous One Solution), MSH2-deficient endometrial cells; type: cell-based; settings: Homo sapiens; HEC59, drug 24 hours; graphs not reaching 50% mortality were extrapolated; NA = data did not reach below 50%, no extrapolation possible; read-out: 50IC MSH2 deficient
Procedure: as §1, §2

MSH2 = settings: previously shown (Vasilyeva 2009, 2010); cited from earlier work
SW416 or HEC59 cells = assay: Xenograft model; type: in vivo, mice
Procedure: SW416 or HEC59 cells in PBS mixed with Matrigel (1:1; BD Biosciences) were subcutaneously injected into the flank of nude donor mice. Tumors were grown for up to 3 weeks. Mice were euthanized, tumors excised, minced into 3 mm pieces, and surgically implanted into the right flank of acceptor mice (10 per group). Isoflurane anesthesia was provided during tumor inoculation. Injection of compounds was started 3 days following tumor implantation to allow recovery from surgery. Compounds were given intraperitoneally, in a volume of 0.5 ml/mouse with a ¼ inch, 23-gauge needle in a 6 ml plastic syringe. Mice were monitored based on survival and body weight. Tumor size, measured by caliper, and body weight were monitored […] for 57 days, and the prolongation of median survival time after ip treatment determined. Any animals showing signs of distress, unnatural movements, severe loss of appetite, severe signs of hypotension, tumor size of […], or weight loss exceeding 10% before the end of the study were euthanized. Tumors were measured twice a week for each group. Tumor volume is calculated as length(mm)×width (mm)^2. Initial measurements were performed when the tumor reached 150-200 mg. Tumor weight (in mg) is calculated as tumor weight (mg)[…](length(mm) of tumor×width (mm) of tumor^2)/2.

ovarian cancer cells = assay: Overcoming resistance to cisplatin in ovarian cancer cells; type: cell-based; settings: data not shown

For `C=CC(=O)O[C@@H]1C[C@@H]2CN3CCc4c([nH]c5cc(OC)ccc45)[C@H]3C[C@@H]2[C@H](C(=O)OC)[C@H]1OC` [SA-I-03, Acryloyl Reserpate], the cell killing (HEC59 and HEC59+chr.2) was “induced cell killing in the micromolar range”, the melting point was over 260 °C and the IC50 [1] was 20.4 µM. For the same compound, the IC50 [2] was 20.7 µM.
`COC(=O)c1cc(/C=C/C(=O)O[C@@H]2C[C@@H]3CN4CCc5c([nH]c6cc(OC)ccc56)[C@H]4C[C@@H]3[C@H](C(=O)OC)[C@H]2OC)ccc1OC` [SA-I-012] gave an IC50 [1] of 48.9 µM and an IC50 [2] of 50.7 µM.
With `COC(=O)[C@H]1[C@H]2C[C@@H]3c4[nH]c5cc(OC)ccc5c4CCN3C[C@H]2C[C@@H](OC(=O)/C=C/c2ccc(C(=O)O)c(OC)c2)[C@@H]1OC` [SA-I-013] the “change of IC50 when MSH2 is present” value (HEC59 and HEC59+chr.2) was “reduction in IC50 when MSH2 is present”, the “change in sensitivity to MSH2” value (HEC59 and HEC59+chr.2) was about 8 fold and the IC50 [1] was 1220 µM. For the same compound, the IC50 [2] was 163 µM.
Work on `COC(=O)[C@H]1[C@H]2C[C@@H]3c4[nH]c5cc(OC)ccc5c4CCN3C[C@H]2C[C@@H](OC(=O)/C=C/c2ccc(OC)c(C(=O)O)c2)[C@@H]1OC` [SA-I-015] yielded an IC50 [1] of 84.2 µM and an IC50 [2] of 89.3 µM.
With `COC(=O)[C@H]1[C@H]2C[C@@H]3c4[nH]c5cc(OC)ccc5c4CCN3C[C@H]2C[C@@H](OC(=O)/C=C/c2ccc(O)c(OC)c2)[C@@H]1OC` [SA-I-016] the “difference between MSH2-proficiency and deficiency (MSH2-dependence of cell killing)” value (HEC59 and HEC59+chr.2) was “small difference between MSH2-proficiency and deficiency”.
In the case of `COC(=O)[C@H]1[C@H]2C[C@@H]3c4[nH]c5cc(OC)ccc5c4CCN3C[C@H]2C[C@@H](OC(=O)/C=C/c2ccc(OC)c(OC(C)=O)c2)[C@@H]1OC` [SA-I-019], the cell killing (HEC59 and HEC59+chr.2) is reported as “induced cell killing in the micromolar range” and the IC50 [2] is reported as 39.3 µM.
With `COC(=O)[C@H]1[C@H]2C[C@@H]3c4[nH]c5cc(OC)ccc5c4CCN3C[C@H]2C[C@@H](OC(=O)/C=C/c2ccc(OC)c(O)c2)[C@@H]1OC` [SA-I-020] the cell killing (HEC59 and HEC59+chr.2) was “induced cell killing in the micromolar range”, the IC50 [1] was 21.3 µM and the IC50 [2] was 22.3 µM.
In the case of `COC(=O)[C@H]1[C@H]2C[C@@H]3c4[nH]c5cc(OC)ccc5c4CCN3C[C@H]2C[C@@H](OC(=O)/C=C/c2cc(OC)c(O)c(OC)c2)[C@@H]1OC` [SA-I-027], the cell killing (HEC59 and HEC59+chr.2) is reported as “induced cell killing in the micromolar range”, the IC50 [1] is reported as 54.5 µM and the IC50 [2] is reported as 47.7 µM.
With `COC(=O)[C@H]1[C@H]2C[C@@H]3c4[nH]c5cc(OC)ccc5c4CCN3C[C@H]2C[C@@H](OC(=O)/C=C/c2ccc(OC)c(N)c2)[C@@H]1OC` [SA-I-029] the “change of IC50 when MSH2 is present” value (HEC59 and HEC59+chr.2) was “reduction in IC50 when MSH2 is present”, the “change in sensitivity to MSH2” value (HEC59 and HEC59+chr.2) was about 2 fold and the IC50 [1] was 113 µM. The IC50 [2] was 77.2 µM.
In the case of `COC(=O)[C@H]1[C@H]2C[C@@H]3c4[nH]c5cc(OC)ccc5c4CCN3C[C@H]2C[C@@H](OC(=O)/C=C/c2ccc(N)c(OC)c2)[C@@H]1OC` [SA-I-039], the “difference between MSH2-proficiency and deficiency (MSH2-dependence of cell killing)” value (HEC59 and HEC59+chr.2) is reported as “small difference between MSH2-proficiency and deficiency”, the “change in sensitivity to MSH2” value (HEC59 and HEC59+chr.2) is reported as about 2 fold and the cell killing (HEC59 and HEC59+chr.2) is reported as “induced cell killing in the micromolar range”. The IC50 [1] was 68.4 µM and the IC50 [2] was 85.7 µM.
For `CCC(=O)O[C@@H]1C[C@@H]2CN3CCc4c([nH]c5cc(OC)ccc45)[C@H]3C[C@@H]2[C@H](C(=O)OC)[C@H]1OC` [SA-I-058, Propionoyl Reserpate], the melting point was 258 °C.
In the case of `COC(=O)[C@H]1[C@H]2C[C@@H]3c4[nH]c5cc(OC)ccc5c4CCN3C[C@H]2C[C@@H](OC(=O)/C=C/c2cc(OC)c(OC)c(OC)c2)[C@@H]1OC` [rescinnamine], the “induction of MSH2-dependent cell death” value (MSH2) is given as “capable of inducing cell death in an MSH2-dependent manner”, the “hypotensive activity limiting the dose” value (SW416 or HEC59 cells) is given as “hypotensive activity of the drug prevented administration of statistically effective doses” and the tumor inhibition (SW416 or HEC59 cells; data not shown) is given as “significant trend toward tumor inhibition”. For the same compound, the “overcoming resistance to cisplatin” value (ovarian cancer cells) was “capable of overcoming resistance to cisplatin in ovarian cancer cells”.
For `COC(=O)[C@H]1[C@H]2C[C@@H]3c4[nH]c5cc(OC)ccc5c4CCN3C[C@H]2C[C@@H](OC(=O)c2cc(OC)c(OC)c(OC)c2)[C@@H]1OC` [reserpine], the “induction of MSH2-dependent cell death” value (MSH2) is listed as “capable of inducing cell death in an MSH2-dependent manner”.
